Results from PubChem BioAssay AID1918941 (Molecular Pharmacology Branch, DTP, NCI, 2023).

System: SW 1271 complex spheroids, viability
Test: Anticancer human tumor SW 1271 cell line growth inhibition [LSD1];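 further: spheroids exposed to agents for 7 days before luminescence read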;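 on viability, T/C: 100% = DMSO vehicle control viability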
Conditions: for IC50: curve of first compound; for viability, T/C: stronger effect = lower value
Procedure, shortened: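 Drug combinations with the LSD1 inhibitor iadademstat tested on tumor cells co-cultured as spheroids with endothelial cells and mesenchymal stem cells. Concentrations descended in half-log increments from clinical Cmax or 10 microM.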

[1] = second compound 0.1 µM, first compound 0.0316 µM
[2] = second compound 0.1 µM, first compound 0.1 µM
[3] = second compound 0.316 µM, first compound 0.0316 µM
[4] = second compound 0.316 µM, first compound 0.1 µM
[5] = second compound 1 µM, first compound 0.0316 µM
[6] = second compound 1 µM, first compound 0.1 µM
[7] = second compound 3.16 µM, first compound 0.0316 µM
[8] = second compound 3.16 µM, first compound 0.1 µM
[9] = second compound 10 µM, first compound 0.0316 µM
[10] = second compound 10 µM, first compound 0.1 µM
[11] = second compound 0.1 µM, first compound 0.000316 µM
[12] = second compound 0.1 µM, first compound 0.001 µM
[13] = second compound 0.1 µM, first compound 0.00316 µM
[14] = second compound 0.1 µM, first compound 0.01 µM
[15] = second compound 0.316 µM, first compound 0.000316 µM
[16] = second compound 0.316 µM, first compound 0.001 µM
[17] = second compound 0.316 µM, first compound 0.00316 µM
[18] = second compound 0.316 µM, first compound 0.01 µM
[19] = second compound 1 µM, first compound 0.000316 µM
[20] = second compound 1 µM, first compound 0.001 µM
[21] = second compound 1 µM, first compound 0.00316 µM
[22] = second compound 1 µM, first compound 0.01 µM
[23] = second compound 3.16 µM, first compound 0.000316 µM
[24] = second compound 3.16 µM, first compound 0.001 µM
[25] = second compound 3.16 µM, first compound 0.00316 µM
[26] = second compound 3.16 µM, first compound 0.01 µM
[27] = second compound 10 µM, first compound 0.000316 µM
[28] = second compound 10 µM, first compound 0.001 µM
[29] = second compound 10 µM, first compound 0.00316 µM
[30] = second compound 10 µM, first compound 0.01 µM

With `CC1COCCN1c1cc(C2(S(C)(=N)=O)CC2)nc(-c2ccnc3[nH]ccc23)n1` (stereo not given) + NC1CC1c1ccc(-c2cccc(O)c2)cc1 the IC50 (second compound 0.1 µM) was 1870 nM, the IC50 (second compound 0.316 µM) was 2600 nM and the IC50 (second compound 1 µM) was over 10000 nM. The IC50 (second compound 3.16 µM) was 1360 nM, the IC50 (second compound 10 µM) was 954 nM and the viability, T/C [1] was 84.8%. For the same compound, the viability, T/C [2] was 79.5%, the viability, T/C (second compound 0.1 µM, first compound 0.316 µM) was 65.5% and the viability, T/C (second compound 0.1 µM, first compound 1 µM) was 49%. For the same compound, the viability, T/C (second compound 0.1 µM, first compound 3.16 µM) was 53.7%, the viability, T/C (second compound 0.1 µM, first compound 10 µM) was 45.6% and the viability, T/C [3] was 81.3%. It also gave a viability, T/C [4] of 82.1%, a viability, T/C (second compound 0.316 µM, first compound 0.316 µM) of 65% and a viability, T/C (second compound 0.316 µM, first compound 1 µM) of 57.1%. For the same compound, the viability, T/C (second compound 0.316 µM, first compound 3.16 µM) was 46%, the viability, T/C (second compound 0.316 µM, first compound 10 µM) was 49.4% and the viability, T/C [5] was 75%. The viability, T/C [6] was 95.2%, the viability, T/C (second compound 1 µM, first compound 0.316 µM) was 70.1% and the viability, T/C (second compound 1 µM, first compound 1 µM) was 56.7%. The viability, T/C (second compound 1 µM, first compound 3.16 µM) was 51.6%, the viability, T/C (second compound 1 µM, first compound 10 µM) was 47.1% and the viability, T/C [7] was 70.2%. It also gave a viability, T/C [8] of 69.9%, a viability, T/C (second compound 3.16 µM, first compound 0.316 µM) of 72.6% and a viability, T/C (second compound 3.16 µM, first compound 1 µM) of 51.7%. It also gave a viability, T/C (second compound 3.16 µM, first compound 3.16 µM) of 46.7%, a viability, T/C (second compound 3.16 µM, first compound 10 µM) of 43.8% and a viability, T/C [9] of 48.1%. For the same compound, the viability, T/C [10] was 61.1%, the viability, T/C (second compound 10 µM, first compound 0.316 µM) was 59.2% and the viability, T/C (second compound 10 µM, first compound 1 µM) was 49.7%. The viability, T/C (second compound 10 µM, first compound 3.16 µM) was 42% and the viability, T/C (second compound 10 µM, first compound 10 µM) was 46.2%.
`CC(C)CC(NC(=O)C(Cc1ccccc1)NC(=O)c1cnccn1)B(O)O` (stereo not given) + NC1CCC(NC2CC2c2ccccc2)CC1 was tested, and the IC50 (second compound 0.1 µM) was under 0.316 nM, the IC50 (second compound 0.316 µM) was under 0.316 nM and the IC50 (second compound 1 µM) was under 0.316 nM. The IC50 (second compound 3.16 µM) was under 0.316 nM, the IC50 (second compound 10 µM) was under 0.316 nM and the viability, T/C [11] was 2.37%. It also gave a viability, T/C [12] of 0.35%, a viability, T/C [13] of 0.16% and a viability, T/C [14] of 0.13%. For the same compound, the viability, T/C [1] was 0.13%, the viability, T/C [2] was 0.32% and the viability, T/C [15] was 3.05%. For the same compound, the viability, T/C [16] was 0.13%, the viability, T/C [17] was 0.12% and the viability, T/C [18] was 0.27%. For the same compound, the viability, T/C [3] was 0.33%, the viability, T/C [4] was 0.2% and the viability, T/C [19] was 2.83%. It also gave a viability, T/C [20] of 0.08%, a viability, T/C [21] of 1.7% and a viability, T/C [22] of 0.43%. The viability, T/C [5] was 0.14%, the viability, T/C [6] was 0.11% and the viability, T/C [23] was 2.94%. It also gave a viability, T/C [24] of 0.33%, a viability, T/C [25] of 0.37% and a viability, T/C [26] of 0.09%. The viability, T/C [7] was 0.16%, the viability, T/C [8] was 0.31% and the viability, T/C [27] was 2.41%. The viability, T/C [28] was 0.43%, the viability, T/C [29] was 0.14% and the viability, T/C [30] was 0.16%. For the same compound, the viability, T/C [9] was 0.12% and the viability, T/C [10] was 0.19%.
For `Nc1ccccc1NC(=O)c1ccc(CNC(=O)OCc2cccnc2)cc1` + NC1CCC(NC2CC2c2ccccc2)CC1, the IC50 (second compound 0.1 µM) was 158 nM, the IC50 (second compound 0.316 µM) was 150 nM and the IC50 (second compound 1 µM) was 153 nM. It also gave an IC50 (second compound 3.16 µM) of 152 nM, an IC50 (second compound 10 µM) of 147 nM and a viability, T/C (second compound 0.1 µM, first compound 0.00949 µM) of 89.1%. The viability, T/C (second compound 0.1 µM, first compound 0.03 µM) was 78.6%, the viability, T/C (second compound 0.1 µM, first compound 0.0949 µM) was 64.7% and the viability, T/C (second compound 0.1 µM, first compound 0.3 µM) was 33.4%. It also gave a viability, T/C (second compound 0.1 µM, first compound 0.949 µM) of 10.5%, a viability, T/C (second compound 0.1 µM, first compound 3 µM) of 5.83% and a viability, T/C (second compound 0.316 µM, first compound 0.00949 µM) of 93.6%. The viability, T/C (second compound 0.316 µM, first compound 0.03 µM) was 69.4%, the viability, T/C (second compound 0.316 µM, first compound 0.0949 µM) was 68% and the viability, T/C (second compound 0.316 µM, first compound 0.3 µM) was 31.2%. The viability, T/C (second compound 0.316 µM, first compound 0.949 µM) was 8.46%, the viability, T/C (second compound 0.316 µM, first compound 3 µM) was 5.39% and the viability, T/C (second compound 1 µM, first compound 0.00949 µM) was 101%. The viability, T/C (second compound 1 µM, first compound 0.03 µM) was 73.5%, the viability, T/C (second compound 1 µM, first compound 0.0949 µM) was 67.8% and the viability, T/C (second compound 1 µM, first compound 0.3 µM) was 35.9%. For the same compound, the viability, T/C (second compound 1 µM, first compound 0.949 µM) was 7.27%, the viability, T/C (second compound 1 µM, first compound 3 µM) was 8.95% and the viability, T/C (second compound 3.16 µM, first compound 0.00949 µM) was 95.5%. It also gave a viability, T/C (second compound 3.16 µM, first compound 0.03 µM) of 85.1%, a viability, T/C (second compound 3.16 µM, first compound 0.0949 µM) of 62.3% and a viability, T/C (second compound 3.16 µM, first compound 0.3 µM) of 32.9%. For the same compound, the viability, T/C (second compound 3.16 µM, first compound 0.949 µM) was 10.5%, the viability, T/C (second compound 3.16 µM, first compound 3 µM) was 4.3% and the viability, T/C (second compound 10 µM, first compound 0.00949 µM) was 95.8%. For the same compound, the viability, T/C (second compound 10 µM, first compound 0.03 µM) was 92.6%, the viability, T/C (second compound 10 µM, first compound 0.0949 µM) was 61.6% and the viability, T/C (second compound 10 µM, first compound 0.3 µM) was 29.2%. For the same compound, the viability, T/C (second compound 10 µM, first compound 0.949 µM) was 11.2% and the viability, T/C (second compound 10 µM, first compound 3 µM) was 7.03%.
`CC(C)CC(NC(=O)C(Cc1ccccc1)NC(=O)c1cnccn1)B(O)O` (stereo not given) + NC1CC1c1ccc(-c2cccc(O)c2)cc1 showed an IC50 (second compound 0.1 µM) of under 0.316 nM, an IC50 (second compound 0.316 µM) of under 0.316 nM and an IC50 (second compound 1 µM) of under 0.316 nM. For the same compound, the IC50 (second compound 3.16 µM) was under 0.316 nM, the IC50 (second compound 10 µM) was under 0.316 nM and the viability, T/C [11] was 2.9%. The viability, T/C [12] was 0.1%, the viability, T/C [13] was 0.1% and the viability, T/C [14] was 0.28%. The viability, T/C [1] was 0.2%, the viability, T/C [2] was 0.25% and the viability, T/C [15] was 3.44%. It also gave a viability, T/C [16] of 0.11%, a viability, T/C [17] of 0.09% and a viability, T/C [18] of 1.18%. It also gave a viability, T/C [3] of 0.59%, a viability, T/C [4] of 0.2% and a viability, T/C [19] of 2.62%. It also gave a viability, T/C [20] of 0.2%, a viability, T/C [21] of 0.37% and a viability, T/C [22] of 4.1%. For the same compound, the viability, T/C [5] was 0.05%, the viability, T/C [6] was 0.13% and the viability, T/C [23] was 2.05%. The viability, T/C [24] was 0.64%, the viability, T/C [25] was 0.12% and the viability, T/C [26] was 4.7%. It also gave a viability, T/C [7] of 0.14%, a viability, T/C [8] of 0.19% and a viability, T/C [27] of 6.62%. The viability, T/C [28] was 0.5%, the viability, T/C [29] was 0.15% and the viability, T/C [30] was 0.72%. The viability, T/C [9] was 0.12% and the viability, T/C [10] was 0.19%.
